Assay results: patent US20160030438A1, “ANTI-TUMORAL COMPOSITION COMPRISING A PI3KBETA INHIBITOR AND A RAF INHIBITOR, TO OVERCOME CANCER CELLS RESISTANCE” (SANOFI, priority 2013, published 2016)
“And” between values parts separate entries of the source, which are not always exact repeats. Equal entries are not always repeated.

Tests used:
[1] = target: PI3Kβ isoform (Homo sapiens, UniProt P42338); assay: PI3Kβ biochemical assay; conditions: biochemical assays
[2] = system: human melanoma cell line WM-266-4; assay: In vitro pro-apoptotic activity (PARP cleavage) in WM-266-4 in a concentration-dependent manner, example 5; assay type: cell-based; conditions: WM-266-4, example 5
Method: (§1) The characterization of the interaction between compound (I) and compound (II) was studied using western blotting method which allows investigating apoptosis by detecting the cleavage of the PARP protein.
(§2) The human melanoma WM-266-4 cell line was purchased at ATCC (Ref number CRL-1676 Batch 3272826). The WM-266-4 cells were cultured in RPMI1640 medium supplemented with 10% FBS and 2 mM L-Glutamine.
They were diluted following two 10-fold step dilution in DMSO in order to obtain a 1 mM solution and a 0.1 mM solution Then each solution at 10 mM, 1 mM or 0.1 mM was diluted 50-fold in culture medium containing 10% serum before being added onto cells with a 20-fold dilution factor to reach final concentrations of 10,000 nM, 1,000 nM and 100 nM. The final DMSO concentration was 0.1% in controls and in all treated wells.
(§3) Cell treatment, Western Blot experiment and calculation of apoptosis fold induction were performed according to the material and method described in example 2.

[3] = system: human melanoma cell line A2058; assay: In vitro pro-apoptotic activity (PARP cleavage) in A2058 in a concentration-dependent manner, example 6; assay type: cell-based; conditions: A2058, example 6
Method: as §1
The human melanoma A2058 cell line was purchased at ATCC (Ref number CRL-11147 Batch 5074651). The A2058 cells were cultured in DMEM High glucose medium supplemented with 10% FBS and 2 mM L-Glutamine.
as §3

[4] = target: T1, PI3Kgamma (Mus musculus, UniProt Q9JHG7); assay: Inhibition of AKT phosphorylation (pAkt-S473) in RAW 264.7 mouse macrophages after C5a stimulation; assay type: cell-based; conditions: pAkt-S473, RAW 264.7, C5a; read-out: IC50 on PI3Kgamma in cells
T1 construct: RAW 264.7 mouse macrophages (after stimulation of AKT phosphorylation by C5a) for PI3Kgamma; endogenous in cells; host or cells: RAW 264.7 mouse macrophages

[5] = target: T2, PI3Kdelta (Homo sapiens, UniProt O00329); assay: PI3Kdelta biochemical assay; conditions: biochemical assays
Target sequence in this assay (O00329 whole entry, species assumed): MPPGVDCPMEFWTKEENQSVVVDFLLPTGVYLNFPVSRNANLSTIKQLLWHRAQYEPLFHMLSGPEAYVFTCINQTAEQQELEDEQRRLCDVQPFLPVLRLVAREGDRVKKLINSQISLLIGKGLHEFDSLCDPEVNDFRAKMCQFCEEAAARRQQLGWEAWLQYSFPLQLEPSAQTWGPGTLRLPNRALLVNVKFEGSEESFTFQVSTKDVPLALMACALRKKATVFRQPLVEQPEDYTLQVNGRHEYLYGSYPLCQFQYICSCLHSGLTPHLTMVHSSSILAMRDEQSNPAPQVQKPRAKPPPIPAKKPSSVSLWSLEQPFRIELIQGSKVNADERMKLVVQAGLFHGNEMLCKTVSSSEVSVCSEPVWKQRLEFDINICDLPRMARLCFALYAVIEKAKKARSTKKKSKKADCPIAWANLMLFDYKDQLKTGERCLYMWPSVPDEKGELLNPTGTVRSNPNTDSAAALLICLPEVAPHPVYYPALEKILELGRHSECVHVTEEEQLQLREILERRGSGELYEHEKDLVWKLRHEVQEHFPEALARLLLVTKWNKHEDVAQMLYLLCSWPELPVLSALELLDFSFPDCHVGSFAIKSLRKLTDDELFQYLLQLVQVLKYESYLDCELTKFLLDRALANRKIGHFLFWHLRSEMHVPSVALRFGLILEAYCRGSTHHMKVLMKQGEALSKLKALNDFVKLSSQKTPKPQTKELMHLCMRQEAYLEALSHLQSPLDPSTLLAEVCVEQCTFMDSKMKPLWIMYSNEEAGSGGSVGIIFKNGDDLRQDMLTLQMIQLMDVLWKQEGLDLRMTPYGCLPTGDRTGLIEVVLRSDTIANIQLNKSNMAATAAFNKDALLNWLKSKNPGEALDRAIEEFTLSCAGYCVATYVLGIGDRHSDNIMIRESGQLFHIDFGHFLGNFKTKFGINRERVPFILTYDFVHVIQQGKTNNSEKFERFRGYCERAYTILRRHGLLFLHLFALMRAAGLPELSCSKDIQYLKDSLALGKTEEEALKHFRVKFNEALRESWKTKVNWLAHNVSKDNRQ
Target sequence in this assay (P27986 whole entry partner, species assumed): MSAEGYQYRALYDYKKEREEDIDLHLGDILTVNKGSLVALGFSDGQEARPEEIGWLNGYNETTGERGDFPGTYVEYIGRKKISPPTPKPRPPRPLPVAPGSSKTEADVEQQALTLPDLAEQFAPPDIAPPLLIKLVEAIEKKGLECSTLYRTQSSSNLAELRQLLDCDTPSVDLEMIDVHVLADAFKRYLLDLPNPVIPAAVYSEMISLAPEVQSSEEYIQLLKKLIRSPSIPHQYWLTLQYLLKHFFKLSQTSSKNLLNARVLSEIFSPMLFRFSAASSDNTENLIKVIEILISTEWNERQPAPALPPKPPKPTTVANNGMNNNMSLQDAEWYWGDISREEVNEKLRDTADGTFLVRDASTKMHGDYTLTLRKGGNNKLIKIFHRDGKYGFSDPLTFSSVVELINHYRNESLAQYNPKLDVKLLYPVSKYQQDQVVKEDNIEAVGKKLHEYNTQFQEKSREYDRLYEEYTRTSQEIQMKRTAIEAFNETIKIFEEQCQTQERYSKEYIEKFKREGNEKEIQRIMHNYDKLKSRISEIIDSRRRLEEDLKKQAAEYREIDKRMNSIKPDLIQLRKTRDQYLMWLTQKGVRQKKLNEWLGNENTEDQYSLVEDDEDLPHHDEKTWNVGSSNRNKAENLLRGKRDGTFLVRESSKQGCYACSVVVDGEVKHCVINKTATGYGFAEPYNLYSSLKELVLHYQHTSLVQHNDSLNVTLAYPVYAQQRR

[6] = target: PI3Kgamma (Homo sapiens, UniProt P48736); assay: PI3Kgamma biochemical assay; conditions: biochemical assays
[7] = target: VPS34 lipid kinase (Homo sapiens, UniProt Q8NEB9); assay: Profiling against panel of more than 400 lipid and protein kinases (VPS34); conditions: biochemical
[8] = target: PI3Kβ (Homo sapiens, UniProt P42338); assay: Inhibition of AKT phosphorylation (pAkt-S473) in MEF-3T3-myr p110β mouse fibroblasts; assay type: cell-based; conditions: pAkt-S473, MEF-3T3-myr p110β; read-out: IC50 on PI3Kβ in the PI3Kβ-dependent cell line
[9] = target: mTOR (Homo sapiens, UniProt P42345); assay: mTOR inhibition; assay type: biochemical; conditions: up to 10 μM
[10] = target: VPS34 (Homo sapiens, UniProt Q8NEB9); assay: Functional VPS34 cellular assay; assay type: cell-based
[11] = target: T2, PI3Kdelta; assay: Inhibition of AKT phosphorylation (pAkt-S473) in MEF-3T3-myr p110δ mouse fibroblasts; assay type: cell-based; conditions: pAkt-S473, MEF-3T3-myr p110δ; read-out: IC50 on PI3Kdelta in cells
Target sequence in this assay (O00329 whole entry, species assumed): as the sequence (O00329 whole entry, species assumed) above
Target sequence in this assay (P26450 whole entry partner, species assumed): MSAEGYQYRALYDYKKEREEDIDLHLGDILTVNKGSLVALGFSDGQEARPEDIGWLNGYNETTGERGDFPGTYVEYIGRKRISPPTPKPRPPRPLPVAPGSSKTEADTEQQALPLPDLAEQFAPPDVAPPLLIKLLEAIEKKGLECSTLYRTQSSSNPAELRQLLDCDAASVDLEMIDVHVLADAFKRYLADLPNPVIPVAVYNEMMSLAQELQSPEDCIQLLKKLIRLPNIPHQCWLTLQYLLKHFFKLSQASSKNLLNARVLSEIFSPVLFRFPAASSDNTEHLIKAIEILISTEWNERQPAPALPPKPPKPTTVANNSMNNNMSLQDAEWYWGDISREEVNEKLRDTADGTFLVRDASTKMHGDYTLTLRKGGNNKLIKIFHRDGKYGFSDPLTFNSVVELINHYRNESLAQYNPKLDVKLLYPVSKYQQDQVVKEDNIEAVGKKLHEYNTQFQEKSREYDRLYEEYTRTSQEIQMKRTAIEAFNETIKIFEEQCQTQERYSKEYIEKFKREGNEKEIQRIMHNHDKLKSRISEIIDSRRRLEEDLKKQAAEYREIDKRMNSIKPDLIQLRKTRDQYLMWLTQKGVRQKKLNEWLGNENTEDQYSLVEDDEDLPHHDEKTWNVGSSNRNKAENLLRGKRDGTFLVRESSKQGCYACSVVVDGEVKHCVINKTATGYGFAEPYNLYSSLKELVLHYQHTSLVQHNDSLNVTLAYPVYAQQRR

[12] = system: BRAF mutated melanoma; conditions: phase I trial; cited from earlier work
[13] = system: human melanoma cell line WM-266-4; assay: In vitro anti-proliferative activity (CelltiterGlo, ray design) in WM-266-4, example 1; assay type: cell-based
Method: Prior to in vitro combination studies, the activity of individual agents was investigated using WM-266-4 cell line. The purpose of testing individual agents was to determine the independence of their action and to determine the dilution design of the Fixed Ratio Drug Combination assay.
as §2
They were diluted serially, in DMSO following a 3 or 3.3-fold dilution step in order to obtain 10 mM to 0.03 μM solutions: then each solution was diluted 50-fold in culture medium containing 10% serum before being added onto cells with a 20-fold dilution factor. The final concentrations tested were defined by a Ray design which allows characterizing the interaction of the two compounds for several fixed proportions in the mixture. The ray design used for this experiment includes one ray for each single agent and 4 combination rays. All rays have 10 concentrations (see Table 1). The DMSO concentration was 0.1% in controls and in all treated wells.
WM-266-4 cells were plated at 2500 cells/well in 96-well plates in appropriate culture medium and incubated for 6 hours at 37° C., 5% CO2. […] Cell growth was evaluated by measuring intracellular ATP using CelltiterGlo® reagent (Promega) according to the manufacturer's protocol. Briefly, CellTiterGlo® was added to each plate, incubated for 1 hour then luminescent signal was read on the MicroBeta Luminescent plate reader. Three experiments have been performed on the cell line. For each experiment, two 96-well plates are used allowing working with duplicates.
Inhibition of cell growth was estimated after treatment with one compound or the combination of compounds for four days and comparing the signal to cells treated with vehicle (DMSO).
Growth inhibition percentage (GI %) was calculated according to the following equation:
GI %=100*(1−((X−BG)/(TC−BG)) […]

[14] = Homo sapiens, single agent 100 nM

Chain of PI3Kgamma (Homo sapiens, UniProt P48736) (P48736 whole entry, species assumed): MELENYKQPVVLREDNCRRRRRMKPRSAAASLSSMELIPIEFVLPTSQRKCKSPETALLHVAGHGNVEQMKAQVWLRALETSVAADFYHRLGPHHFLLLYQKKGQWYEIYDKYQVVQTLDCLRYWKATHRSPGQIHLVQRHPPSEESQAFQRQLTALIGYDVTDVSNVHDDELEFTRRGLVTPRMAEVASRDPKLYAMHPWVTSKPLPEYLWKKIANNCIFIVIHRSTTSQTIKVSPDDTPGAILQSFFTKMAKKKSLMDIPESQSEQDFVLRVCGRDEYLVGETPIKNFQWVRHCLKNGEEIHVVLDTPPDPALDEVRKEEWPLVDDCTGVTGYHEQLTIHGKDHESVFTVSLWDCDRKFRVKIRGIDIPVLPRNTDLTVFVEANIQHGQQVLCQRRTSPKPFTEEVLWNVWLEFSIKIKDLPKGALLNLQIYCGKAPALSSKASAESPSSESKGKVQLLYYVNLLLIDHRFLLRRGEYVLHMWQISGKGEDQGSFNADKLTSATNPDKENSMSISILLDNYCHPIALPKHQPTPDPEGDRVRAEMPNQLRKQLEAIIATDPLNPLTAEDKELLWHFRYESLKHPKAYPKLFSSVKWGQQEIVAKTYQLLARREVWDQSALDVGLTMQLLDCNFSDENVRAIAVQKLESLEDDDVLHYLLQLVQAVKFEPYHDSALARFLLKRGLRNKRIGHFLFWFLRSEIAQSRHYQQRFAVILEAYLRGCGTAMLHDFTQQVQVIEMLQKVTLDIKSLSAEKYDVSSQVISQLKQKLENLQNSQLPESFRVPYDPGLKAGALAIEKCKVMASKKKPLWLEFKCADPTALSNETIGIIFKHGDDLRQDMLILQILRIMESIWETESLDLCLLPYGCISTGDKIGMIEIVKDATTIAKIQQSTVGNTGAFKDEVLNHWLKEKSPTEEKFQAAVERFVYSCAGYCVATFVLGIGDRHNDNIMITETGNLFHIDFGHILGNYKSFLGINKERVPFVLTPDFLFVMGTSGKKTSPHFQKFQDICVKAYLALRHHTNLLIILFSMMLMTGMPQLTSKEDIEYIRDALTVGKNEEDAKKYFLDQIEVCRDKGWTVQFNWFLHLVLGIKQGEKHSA
Chain of VPS34 lipid kinase (Q8NEB9 whole entry): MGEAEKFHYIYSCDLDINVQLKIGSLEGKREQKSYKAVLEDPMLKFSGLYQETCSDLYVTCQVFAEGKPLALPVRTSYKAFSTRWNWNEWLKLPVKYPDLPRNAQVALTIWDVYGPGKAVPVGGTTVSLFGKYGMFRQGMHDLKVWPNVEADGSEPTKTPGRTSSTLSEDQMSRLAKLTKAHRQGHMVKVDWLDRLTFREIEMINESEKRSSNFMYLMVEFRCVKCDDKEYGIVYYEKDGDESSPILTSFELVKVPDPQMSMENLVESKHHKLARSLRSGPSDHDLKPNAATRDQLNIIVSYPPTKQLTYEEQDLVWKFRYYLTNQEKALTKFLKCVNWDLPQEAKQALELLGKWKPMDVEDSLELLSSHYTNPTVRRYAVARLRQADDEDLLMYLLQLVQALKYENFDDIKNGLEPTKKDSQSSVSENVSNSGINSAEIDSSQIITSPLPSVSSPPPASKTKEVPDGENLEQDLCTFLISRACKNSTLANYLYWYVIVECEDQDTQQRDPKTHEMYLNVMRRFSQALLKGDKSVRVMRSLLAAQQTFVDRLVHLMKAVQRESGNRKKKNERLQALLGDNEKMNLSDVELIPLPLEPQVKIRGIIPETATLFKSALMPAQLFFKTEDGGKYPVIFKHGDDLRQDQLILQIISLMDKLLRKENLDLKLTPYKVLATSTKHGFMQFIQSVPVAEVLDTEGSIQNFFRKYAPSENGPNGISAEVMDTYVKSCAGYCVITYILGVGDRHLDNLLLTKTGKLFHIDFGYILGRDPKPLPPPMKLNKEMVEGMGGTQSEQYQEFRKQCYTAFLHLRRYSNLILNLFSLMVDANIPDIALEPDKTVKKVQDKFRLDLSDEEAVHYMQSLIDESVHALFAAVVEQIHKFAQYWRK
Chain of VPS34 (Q8NEB9 whole entry, species assumed): as the sequence (Q8NEB9 whole entry) above

For `C[C@H]1Cc2ccccc2N1C(=O)Cc1nc(N2CCOCC2)cc(=O)[nH]1` [Compound (I), 2-{2-[(2S)-2-methyl-2,3-dihydro-1H-indol-1-yl]-2-oxoethyl}-6-(morpholin-4-yl)pyrimidin-4(3H)-one], the IC50 [1] was 65 nM, the “PARP cleavage signal (AU-BG)” value ([2]; single agent 100 nM) was 241428 AU-BG and the “PARP cleavage signal (AU-BG)” value ([2]; single agent 1 000 nM) was 502317 AU-BG. For the same compound, the “PARP cleavage signal (AU-BG)” value ([2]; single agent 10 000 nM) was 1756263 AU-BG, the “PARP cleavage signal (AU-BG)” value ([3]; single agent 100 nM) was 2380877 AU-BG and the “PARP cleavage signal (AU-BG)” value ([3]; single agent 1 000 nM) was 2685395 AU-BG. For the same compound, the “PARP cleavage signal (AU-BG)” value ([3]; single agent 10 000 nM) was 5173100 AU-BG, the IC50 [4] was greater than 3000 nM and the IC50 [5] was 465 nM. It also gave an IC50 [6] greater than 10000 nM, an IC50 [7] of 180 nM and an IC50 [8] of 32 nM. For the same compound, the mTOR inhibition [9] was “not inhibit mTOR”, the IC50 [10] was greater than 10000 nM and the IC50 [11] was 823 nM.

In the case of `CCCS(=O)(=O)Nc1ccc(F)c(C(=O)c2c[nH]c3ncc(-c4ccc(Cl)cc4)cc23)c1F` [Compound (II), 1-Propanesulfonamide,N-[3-[[5-(4-chlorophenyl)-1H-pyrrolo[2,3-b]pyridin-3-yl]carbonyl]-2,4-difluorophenyl]], the fold induction at 0.1 µM [2, 14] is reported as 1.62, the “PARP cleavage signal (AU-BG)” value ([2]; single agent 100 nM) is reported as 413818 AU-BG and the “Fold induction of PARP cleavage” value ([2]; single agent 1 000 nM) is reported as 2.59 fold. For the same compound, the “PARP cleavage signal (AU-BG)” value ([2]; single agent 1 000 nM) was 662217 AU-BG, the “Fold induction of PARP cleavage” value ([2]; single agent 10 000 nM) was 3.42 fold and the “PARP cleavage signal (AU-BG)” value ([2]; single agent 10 000 nM) was 876269 AU-BG. The fold induction at 0.1 µM [3, 14] was 1.14, the “PARP cleavage signal (AU-BG)” value ([3]; single agent 100 nM) was 2431268 AU-BG and the “Fold induction of PARP cleavage” value ([3]; single agent 1 000 nM) was 2.13 fold. For the same compound, the “PARP cleavage signal (AU-BG)” value ([3]; single agent 1 000 nM) was 4540797 AU-BG, the “Fold induction of PARP cleavage” value ([3]; single agent 10 000 nM) was 2.44 fold and the “PARP cleavage signal (AU-BG)” value ([3]; single agent 10 000 nM) was 5192876 AU-BG. For the same compound, the “patients with at least 30% tumor shrinkage by RECIST” value [12] was 81%, the IC50 ([13]; Homo sapiens, WM 266-4, approximately, read-out: IC50 with WM-266-4 sensitive cancer cells) was roughly 84 nM and the “Absolute IC40s” value ([13]; single agent, WM-266-4, 96 hours, example 1) was 35 nM and 34.9 nM. The “IC40, antiproliferative effect, WM-266-4” value ([13]; single agent, approximately) was roughly 60 nM.
